Here are results for 51 compounds from the OPERA property sets (Mansouri et al. 2018).

Conditions in one data set: not given
`C#CC(C)(C)NC(=O)c1ccc(C)cc1` showed a log10 Koc (L/kg) of 1.76.
Usually melting point stands for the temperature, or range, at which the solid turns liquid. `COC(=O)c1ccc(I)cc1` had a melting point of 115 °C.
On the same count and under the same terms, the figure for `CCCCCCCCC#CCCCCCCCC(=O)O` is 48 °C.
A word on the boiling point: it is the temperature of boiling at a given pressure. Compound `CCCCCCCCCCCCCCCCCCCCCCCCCCCCCCC` gave a boiling point of 458 °C, a log10 biodegradation half-life (days) of 2.44, a log10 vapour pressure (mmHg) of -10.9 and a melting point of 67.9 °C.
Turning to `O=S(=O)(Cc1ccccc1)Cc1ccccc1`, the melting point was 152 °C.
Turning to `O=[N+]([O-])c1ccc(Oc2ccc(N=C=S)cc2)cc1`, the melting point is 110 °C.
As to `CC(CC(=O)O)C(=O)O` (stereo unspecified), the melting point stood at 118 °C.
With `C=CC(=O)OCCCCCCCC`, the log10 vapour pressure (mmHg) is -0.994 and the ready biodegradability entry is listed as “readily biodegradable”.
In the case of `BrCC(CBr)(CBr)CBr`, the boiling point is 306 °C, the melting point came to 163 °C and the ready biodegradability entry is reported as “not readily biodegradable”.
`FC(=C(F)C(F)(F)F)C(F)(F)F` came in with a boiling point of 1.5 °C, a log10 vapour pressure (mmHg) of 3.3 and a melting point of -129 °C.
For the compound `CCCN.Cl`, the melting point was found to be 161 °C.
The compound `CCC(Br)(CC)C(N)=O` displayed a melting point of 67 °C.
The compound `N#CCON=C(C#N)c1ccccc1` yielded a log10 vapour pressure (mmHg) of -0.457 and a melting point of 55 °C.
`COc1c2ccoc2cc2oc(C)cc(=O)c12` came in with a melting point of 144 °C.
Same read-out and setting: to `Cc1c(F)c(F)c(C(=O)O)c(F)c1F` belongs 174 °C; to `COc1ccc(C(=O)c2ccc(OC)cc2O)c(O)c1`, 140 °C.
Consider `COC(=O)CCc1ccccc1`, for which the boiling point came to 238 °C.
In turn, `CC(N)=O` returned a boiling point of 222 °C, a log10 Koc (L/kg) of 0.7, a log10 vapour pressure (mmHg) of -1.4 and a melting point of 81 °C. In addition, the ready biodegradability result is listed as “readily biodegradable”.
For `CCCCCCCCCCC(=O)O`, the boiling point is 280 °C, the log10 vapour pressure (mmHg) is -2.42, the melting point turned out to be 28.6 °C and the ready biodegradability entry is given as “readily biodegradable”.
As to `COc1c(Cl)ccc(Cl)c1Cl`, the boiling point stood at 227 °C, the log10 Henry constant (atm·m³/mol) is -3.54 and the melting point came to 45 °C.
On to `CCN=C=S`, for which the boiling point turned out to be 132 °C, the log10 vapour pressure (mmHg) is 1.06 and the melting point is -5.9 °C.
As to `CCOc1ccc2nc(S)sc2c1`, the melting point was found to be 199 °C.
For the compound `CN(C)c1ccc(/N=N/c2ccccc2C(=O)O)cc1`, the melting point is 183 °C.
Take `OCc1ccc(-c2ccccc2)cc1`: the log10 Koc (L/kg) worked out at 2.54.
For `N#Cc1cccc(Br)c1`, the boiling point turned out to be 225 °C.
`O=C(c1ccc(O)cc1)c1ccc(O)c(O)c1O`: the ready biodegradability result is given as “not readily biodegradable”.
In turn, `Clc1ccc2c(Cl)ccnc2c1` displayed a melting point of 93 °C.
For `COC(CC(OC)OC)OC`, the boiling point was 183 °C.
Compound `CCOC(=O)CC(=O)c1ccccc1` returned a log10 vapour pressure (mmHg) of -3.39.
Compound `CC(C)=CC(=O)NS(=O)(=O)c1ccc(N)cc1` showed a melting point of 184 °C.
Compound `CC(O)C(C)O[N+](=O)[O-]` (stereo unspecified) came in with a log10 Henry constant (atm·m³/mol) of -7.
The compound `O=C(O)c1c(Br)c(O)c(O)c(O)c1Br` gave a melting point of 150 °C.
The compound `Cc1cc(C)c(C)s1` registered a boiling point of 164 °C.
In turn, `Brc1cc2c(cc1Br)Oc1cc(Br)c(Br)cc1O2` had a log10 vapour pressure (mmHg) of -8.32 and a melting point of 334 °C.
Take `Cc1cc(C)c(C)c(O)c1C`: the boiling point was found to be 247 °C and the melting point was 118 °C.
`CCCCCCCCNC(C)C(O)c1ccc(SC(C)C)cc1` (stereo unspecified) had a melting point of 62.5 °C.
For the compound `CCCCCCCCCCCCCCCCCCI`, the boiling point was 383 °C, the log10 vapour pressure (mmHg) was -5.72 and the melting point is 34 °C.
Regarding `CCC(=O)C1(c2cccc(O)c2)CCN(C)CC1`, the melting point worked out at 156 °C.
For the compound `Nc1ccc2[nH]ccc2c1`, the melting point stood at 132 °C.
Consider `CCOP(=S)(OCC)SCn1nnc2ccccc2c1=O`, for which the melting point was determined as 53 °C.
`CCN(CC)C(=O)N1CCN(C)CC1` had a melting point of 48 °C.
For the compound `C[C@H](N)CCc1ccccc1`, the boiling point came to 223 °C and the melting point was 143 °C.
As to `FC(F)(F)C(F)(Cl)C(Cl)(Cl)C(F)(F)F` (stereo unspecified), the boiling point was 98 °C and the melting point was 4 °C.
Turning to `CCCCCCCCC(Br)CBr` (stereo unspecified), the log10 vapour pressure (mmHg) is -2.43 and the melting point stood at 28 °C.
In turn, `COc1ccc(Cc2cnc(N)nc2N)cc1OC` returned a melting point of 233 °C.
In the case of `Cc1ccc(C)c(C(C)c2ccccc2)c1` (stereo unspecified), the ready biodegradability entry is reported as “not readily biodegradable”.
Compound `CCCCC=CC=O` came in with a boiling point of 166 °C.
With `Cc1c(C)c(C)c(N)c(C)c1C`, the boiling point worked out at 278 °C and the melting point is 152 °C.

Staying with this data set, now noted: fish.
Take `ClCCOC(c1ccccc1)c1ccccc1`: the log10 BCF is 2.51 and the log10 biotransformation half-life (days) was -0.07.
Regarding `O=C1c2ccccc2C(=O)c2cc(Cl)ccc21`, the log10 BCF is 2.28 and the log10 biotransformation half-life (days) was -0.36.
The compound `BrCC(CBr)(CBr)CBr` displayed a log10 BCF of 1.94 and a log10 biotransformation half-life (days) of 0.76.
For the compound `COc1c(Cl)ccc(Cl)c1Cl`, the log10 BCF turned out to be 2.52.
`Cc1ccc(C)c(C(C)c2ccccc2)c1` (stereo unspecified) registered a log10 BCF of 2.86 and a log10 biotransformation half-life (days) of 0.1.
The compound `CC(=CC(C)C)CC(C)C` returned a log10 biotransformation half-life (days) of 0.92.
